Converted amounts (≈) assume the structure as drawn. Structures can show the parent of a compound that is named as a salt. Where two headings read alike, the source gives them in different places.
Columns and labels:
E. histolytica [1] = test: E. histolytica cell counts
[2] = test system: S. epidermidis strain 9142; test: Biofilm determination, crystal violet, S. epidermidis; format: cell-based, Staphylococcus epidermidis
Description: Staphylococcal strains were cultured overnight in TSB at 37° C. with shaking, diluted in fresh medium to an OD600 of 0.01 and 200 W was dispensed into sterile flat bottom polystyrene 96 well microtiter plates (Costar 3596, Corning Inc.). […] Each compound and dilution was tested in triplicate. The plates were incubated overnight at 37° C. in a humidified incubator, without shaking and both growth and biofilm accumulation were determined at 16 h.
Following recording of turbidities, the culture medium was aspirated and the wells were washed three times with distilled water, blotted on paper towels, and fixed with 75% ethanol for 10 minutes.
To visualize biofilm material, 0.5% crystal violet was added to each well and after 5 minutes was removed and the wells washed three times with distilled water. Plates were read using a microplate reader at a wavelength of 570 nm. The dye was then extracted by adding 200 W of 95% ethanol, and the absorbance was read again at 570 nm. All assays were performed in triplicate and the mean and standard deviation determined. Generally, the ethanol-solubilized crystal violet was more reliable and these determinations are reported throughout.

C. difficile [3] = test: MIC by agar dilution, C. difficile; format: cell-based, Clostridium difficile
Description: A standard broth dilution protocol was used in 96 well microplates containing a standard dilution of the microorganism to be tested in 100 microliters of the appropriate medium. Appropriate medium: E. coli, LB medium; Staphylococcus strains, Trypticase Soy; and for H. pylori and C. jejuni, Brain Heart Infusion. The compounds to be tested were set at 32 μg/ml in 200 microliters in well one and then serially diluted to provide a range from 32 to 0.06. The wells were scored visually at 24 h. The well where there was no growth was recorded as the MIC. […]
(§1) Representative compounds of the invention were tested in a series of assays against a series of organisms as described above. […] The organisms tested include, C. difficile, H. pylori, C. jejuni, MRSA, S. epidermidis, and E. coli. S. epidermidis and E. coli were tested in the plank and biofilm assay. A disk diffusion assay was also used for C. difficile. Direct PFOR enzyme assays were also performed. All analogues and derivatives were not tested on every organism in every type of assay (the “-” in each table means that it was not tested).

MRSA = test: MIC testing by broth dilution, MRSA; format: cell-based, Staphylococcus aureus
In short: (§2)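 Values are broth-dilution MICs, defined as the well showing no growth on visual reading after 24 h; the tested range was 32 to 0.06 μg/ml, in organism-specific media (LB, Trypticase Soy, Brain Heart Infusion). The C. difficile entries come instead from anaerobic Kirby-Bauer disk zones, normalised to NTZ.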

H. pylori = test: MIC testing by broth dilution, H. pylori; format: cell-based, Helicobacter pylori
In short: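 Helicobacter pylori was tested using a standard broth dilution method in 96 well microplates, each well holding a standard dilution of the organism in 100 microliters of Brain Heart Infusion. Compounds started at 32 μg/ml in 200 microliters in the first well and were serially diluted from 32 to 0.06. Wells were read visually at 24 h, and the MIC was the well with no growth.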

[4] = test system: PFOR (pyruvate ferredoxin oxidoreductase); test: Direct PFOR enzyme assay; format: biochemical
Description: as §1

E. coli = test: MIC testing by broth dilution, E. coli plank; format: cell-based, Escherichia coli
In short: as §2

E. histolytica [5] = test: Amoebic dysentery mouse infection model; format: in vivo; conditions: drugs given orally or parenterally in advance
[6] = test system: S. aureus and S. epidermidis strains; test: MIC by microdilution in TSB, staphylococcal strains; format: cell-based, Staphylococcus epidermidis; conditions: Staphylococcus aureus, MRSA
Description: Minimal inhibitory concentration testing of NTZ was done in sterile round bottom 96 well microtiter polystyrene plates (Corning Inc., Corning, N.Y.) by microdilution. Tizoxanide TIZ (deacetylated form of NTZ), denitro-NTZ (TIZ without 5-nitro group) and amoxanide AMIX (TIZ-ethylamine) were also tested. Bacteria were grown overnight and suspended in fresh TSB to an OD600 of 0.01 and 100 μl were dispensed into wells with the first well containing 200 μA NTZ and other antibiotics (DMSO control) were added to well one and serially diluted from 32 μg/ml. All compounds were tested in triplicate and plates were read visually or with a plate reader (Molecular Devices) at 8, 12 and at 24 h. MIC was determined as the first well in which no visible bacterial growth was noted relative to controls. Drug effects on aerobic growth were determined in 125 ml flasks containing 25 ml of TSB medium and following inoculation (detailed above), flasks were on a gyrorotary shaker (200 rpm) at 37° C. Final concentrations of NTZ were 0, 10 and 25 μg/ml and samples were removed at hourly intervals and absorbance determined at 600 nm.

Solubility in water = format: physicochemical
S. epidermidis = test: MIC testing by broth dilution, S. epidermidis plank; format: cell-based, Staphylococcus epidermidis
In short: as §2

[7] = test system: S. epidermidis strain 9142; test: Effect of zinc on the action of NTZ (biofilm and MIC); format: cell-based, Staphylococcus epidermidis; conditions: zinc 20 μM, read at 8 h
Description: […] As a control, ZnCl2 was added to untreated bacteria. Additional controls included testing of 10 μM CaCl2 and MgCl2 in the same format. The inhibitory effect of EDTA on biofilm production and its reversibility by Zn^2+ was also assessed as described for NTZ.

C. jejuni = test: MIC testing by broth dilution, C. jejuni; format: cell-based, Campylobacter jejuni
In short: as §2

S. epidermidis biofilm = S. epidermidis biofilm assay (activity tables); format: cell-based, Staphylococcus epidermidis; conditions: for MIC S. epidermidis Biofilm: Thiophene analogues table
In short: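 Overnight TSB cultures diluted to OD600 0.01 and grown static with compound (triplicate) at 37° C for 16 h; turbidity recorded for growth. Biofilm: washed wells ethanol-fixed, stained with 0.5% crystal violet, A570 read before and after 95% ethanol extraction; mean ± SD.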

E. coli biofilm = E. coli biofilm assay (activity tables); format: cell-based, Escherichia coli
In short: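 E. coli strain 042 inoculated 1:100 with NTZ-containing medium and grown statically at 37 °C for 24 h. Growth measured by turbidity or plate counts (cfu/ml); biofilm stained with 0.5% crystal violet and read at 570 nm; triplicate, mean ± SD.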

C. difficile [8] = test: Disk diffusion (Kirby Bower), C. difficile; format: cell-based, Clostridium difficile; conditions: for Disk Diffusion (%) C. difficile: zone of inhibited growth as relative ratio to the zone for NTZ; for Disk Diff (%) C. difficile: Nitazoxanide = 100, Thiophene analogues table
In short: as §2

[9] = Clostridioides difficile, read-out: MIC (μM) C. difficile
[10] = Staphylococcus aureus, MRSA, 24 h, read-out: MIC (μM) MRSA
[11] = Helicobacter pylori, 24 h, read-out: MIC (μM) H. pylori
[12] = Escherichia coli, 24 h, read-out: MIC (μM) E. coli Plank
[13] = Campylobacter jejuni, 24 h, read-out: MIC (μM) C. jejuni
[14] = Escherichia coli, read-out: MIC (μM) E. coli Biofilm
[15] = Thiophene analogues table, read-out: MIC C. difficile
[16] = Thiophene analogues table, read-out: MIC MRSA
[17] = Thiophene analogues table, read-out: MIC H. pylori
[18] = planktonic, Thiophene analogues table, read-out: MIC E. coli Plank
[19] = planktonic, Thiophene analogues table, read-out: MIC S. epidermidis Plank
[20] = Thiophene analogues table, read-out: MIC C. jejuni
[21] = biofilm, Thiophene analogues table, read-out: MIC E. coli Biofilm

With `NCCOc1ccccc1C(=O)Nc1ncc([N+](=O)[O-])s1` [VPC161219, 2-(2-Aminoethoxy)-N-(5-nitrothiazol-2-yl)benzamide hydrochloride] as the molecule, how does the “E. histolytica cell counts, compared by MIC” value (E. histolytica [1]) read?
Its value is “superior to nitazoxanide based on MIC”.

What about the “Fold decrease in anti-biofilm potency versus NTZ” value ([2]; S. epidermidis 9142) of the same molecule?
Its value is 2 fold.

And the IC50 ([2]; Staphylococcus epidermidis, 9142, read-out: IC50 biofilm production)?
Its IC50 is 8 µg/mL.

And the MIC (C. difficile [3]; [9])?
The MIC was 46.4 µM.

And the MIC (MRSA; [10])?
The MIC was 92.8 µM.

And the MIC (H. pylori; [11])?
Its MIC is 0.7 µM.

And the “PFOR inhibition relative to nitazoxanide (=100)” value [4]?
The value was 114%.

What about the MIC (E. coli; [12]) of the same molecule?
The MIC was 69.6 µM.

What about the Prevention rates (E. histolytica [5]) of the same molecule?
The Prevention rates was “equivalence”.

And the MIC [6]?
Its MIC is 16 to 32 µg/mL.

And the “Fold difference in water solubility versus NTZ” value (Solubility in water; more soluble than NTZ)?
Its value is 15 fold.

And the solubility (Solubility in water; water)?
Its solubility is 400 µg/mL.

And the MIC (S. epidermidis; Staphylococcus epidermidis, 24 h, read-out: MIC (μM) S. epidermidis Plank)?
The MIC was 92.8 µM.

And the “Effect of Zn2+ on the growth inhibitory action (MIC)” value [7]?
The value was “no effect”.

What about the MIC (C. jejuni; [13]) of the same molecule?
The MIC was 17.4 µM.

And the “MIC (μM) S. epidermidis Biofilm” value (S. epidermidis biofilm)?
Its value is 46.4 µM.

What about the MIC (E. coli biofilm; [14]) of the same molecule?
The MIC was 46.4 µM.

What about the “Disk Diffusion (%) C. difficile” value (C. difficile [8]) of the same molecule?
The value was 88 ± 4%.

For `O=C(Nc1ncc([N+](=O)[O-])s1)c1cc(Cl)sc1Cl` [VPC161199], which MIC (C. difficile [3]; [15]) is on record?
The MIC was 12.3 µM (≈ 3.99 µg/mL).

And the MIC (MRSA; [16])?
The MIC was 6.2 µM (≈ 2.01 µg/mL).

What about the MIC (H. pylori; [17]) of the same molecule?
Its MIC is 1.5 µM (≈ 0.486 µg/mL).

And the “PFOR inhibition relative to nitazoxanide (=100)” value ([4]; Thiophene analogues table)?
Its value is 48%.

And the MIC (E. coli; [18])?
Its MIC is 98.7 µM (≈ 32 µg/mL).

What about the MIC (S. epidermidis; [19]) of the same molecule?
Its MIC is 12.3 µM (≈ 3.99 µg/mL).

And the MIC (C. jejuni; [20])?
Its MIC is 2.3 µM (≈ 0.746 µg/mL).

What about the “MIC S. epidermidis Biofilm” value (S. epidermidis biofilm) of the same molecule?
The value was 24.7 µM (≈ 8.01 µg/mL).

And the MIC (E. coli biofilm; [21])?
The MIC was 24.7 µM (≈ 8.01 µg/mL).

What about the “Disk Diff (%) C. difficile” value (C. difficile [8]) of the same molecule?
The value was 89%.

With `O=C(Nc1ncc([N+](=O)[O-])s1)c1cccc(C(F)(F)F)c1` [VPC161183, N-(5-Nitrothiazol-2-yl)-3-(trifluoromethyl)benzamide] as the molecule, how does the MIC (C. difficile [3]; [9]) read?
Its MIC is 12.6 µM (≈ 4 µg/mL).

And the MIC (MRSA; [10])?
Its MIC is 3.2 µM (≈ 1.02 µg/mL).

And the MIC (H. pylori; [11])?
The MIC was 3.5 µM (≈ 1.11 µg/mL).

What about the “PFOR inhibition relative to nitazoxanide (=100)” value [4] of the same molecule?
Its value is 87%.

What about the MIC (E. coli; [12]) of the same molecule?
The MIC was 37.8 µM (≈ 12 µg/mL).

And the MIC (C. jejuni; [13])?
The MIC was 4.7 µM (≈ 1.49 µg/mL).

What about the “MIC (μM) S. epidermidis Biofilm” value (S. epidermidis biofilm) of the same molecule?
Its value is 25.2 µM (≈ 7.99 µg/mL).

And the MIC (E. coli biofilm; [14])?
Its MIC is 31.5 µM (≈ 9.99 µg/mL).

What about the “Disk Diffusion (%) C. difficile” value (C. difficile [8]) of the same molecule?
Its value is 95 ± 2%.

With `O=C(Nc1ncc([N+](=O)[O-])s1)c1sc2cc(F)ccc2c1Cl` [VPC161115] as the molecule, how does the MIC (C. difficile [3]; [15]) read?
The MIC was 11.2 µM (≈ 4.01 µg/mL).

And the MIC (MRSA; [16])?
Its MIC is 2.1 µM (≈ 0.751 µg/mL).

What about the MIC (H. pylori; [17]) of the same molecule?
Its MIC is 1.0 µM (≈ 0.358 µg/mL).

And the “PFOR inhibition relative to nitazoxanide (=100)” value ([4]; Thiophene analogues table)?
The value was 96%.

What about the MIC (E. coli; [18]) of the same molecule?
Its MIC is 89.4 µM (≈ 32 µg/mL).

What about the MIC (S. epidermidis; [19]) of the same molecule?
The MIC was 5.6 µM (≈ 2 µg/mL).

What about the MIC (C. jejuni; [20]) of the same molecule?
The MIC was 5.6 µM (≈ 2 µg/mL).

And the “MIC S. epidermidis Biofilm” value (S. epidermidis biofilm)?
The value was 0.1 µM (≈ 0.0358 µg/mL).

And the MIC (E. coli biofilm; [21])?
Its MIC is 5.6 µM (≈ 2 µg/mL).

And the “Disk Diff (%) C. difficile” value (C. difficile [8])?
Its value is 44%.
